Results reported in paper PMC11300601, “Zurletrectinib is a next-generation TRK inhibitor with strong intracranial activity against NTRK fusion-positive tumours with on-target resistance to first-generation agents” (British Journal of Cancer, 2024).
Read-outs that look alike come from different tables or passages of the source.

Tests used:
Assay in all cases: Ba/F3 cell viability (anti-proliferative activity)
Format in all cases: cell-based, mouse
Ba/F3 LMNA-NTRK1-G667C = system: Ba/F3 LMNA-NTRK1-G667C
Source text: (§1) NTRK fusion-positive colorectal cancer cell lines IRC, Kor1, and KM12 were utilized. The IRC and the KM12 cell lines were obtained from Dr. Bardelli and cultured according to the described protocols. The Kor1 cell line was obtained from Lee et al. and cultured on laminin pre-treated plates in RPMI media supplemented with 10% Fetal Bovine Serum (FBS). All cell lines were authenticated by STR and periodically screened for the presence of mycoplasma. For the mutant models, two human-derived colorectal cancer cell lines (IRC) and two mouse-derived glioma models (NLS) were used. […] Sequencing of the double mutant cell line was performed using MSK-IMPACT [25]. IRC primary cell lines were cultured with DMEM/F12 50:50 Mix (Corning) supplemented with 10% FBS. NLS Bcan-Ntrk1 Trka G598R and Bcan-Ntrk1 Trka G670C single mutants as well as double mutants NLS Bcan-Ntrk1 Trka G598R/G670A and NLS Bcan-Ntrk1 Trka G598R/G670C isogenic models were established using CRISPR/Cas9 to knock-in TRKA solvent-front and xDFG mutations into tumor cells derived from a Bcan-Ntrk1-driven glioma mouse model. Trka G598R is the mouse ortholog to human TRKA G595R while Trka G670A and Trka G670C are the mouse ortholog to human TRKA G667A and TRKA G667C, respectively. Mouse p53 ^−/^− Bcan-Ntrk1 glioma cells were plated on laminin-coated plates and cultured with Neurocult Stem Cell Basal Media with Proliferation Supplements (Stem Cell Technologies). Ba/F3 cell lines stably expressing WT and mutant versions (i.e. G595R, G667C/A, V573M, F589L, F633L, F617L, G623R/E, G639R, G696A/C, G709C, V608D/M) of human TRKA, TRKB or TRKC were generated using either lentiviral transduction or standard transfection methods by a contract research organization (Kyinno, Beijing, China).
(§2) CellTiter-Glo Cell Viability Assays (Promega) and crystal violet clonogenic assays were performed on primary NTRK fusion-positive colorectal cancer cell lines, mouse Ba/F3 cell lines and isogenic mouse glioma cell lines. For the CellTiter-Glo assays, three biological replicates were performed, with each condition being assayed in triplicate determinations. Cells were seeded in a 96-well plate in the afternoon at optimal density. […] Plates were removed from the incubator 72 h later and CellTiter-Glo reagent was added. Absorbance was read at 490 nm in accordance with Promega’s protocol. Data is presented as a survival percentage on the y-axis (mean ± STDEV) normalized to the control DMSO-treated cells deemed 100% viable. Drug concentrations on the x-axis are represented as a base 10 logarithm (LOG). For the crystal violet assays, cells were seeded in a 24-well plate at optimal densities in the afternoon. […] Crystal violet plates were removed from the incubator 72 h later, washed with PBS, fixed with 4% paraformaldehyde for 15 min, and stained with crystal violet for 10 min. Crystal violet was washed off and plates were left to dry prior to imaging. Clonogenic assays were performed in three biological replicates.
(§3) Statistical analyses were conducted using GraphPad Prism 9 (GraphPad Software Inc.). For CellTiter-Glo assays, raw data obtained were normalized to the DMSO control utilizing Microsoft Excel. […] Data is presented as the mean ± standard deviation (STDEV) of all replicates. Measurements were assessed for normal distribution and homogeneity of variance using appropriate tests and were analyzed using analysis of variance or T-Tests, and nonparametric tests were used for non-normal distributed data. Animal studies utilized five arms with six or eight mice per arm. A Kaplan–Meier test was used to assess lifespan characteristics and for comparison between groups. Median survivals were obtained using GraphPad Prism 9. Sample size was based on statistical power analysis to ensure sufficient capability to detect a pre-specified effect size. We assumed a moderate effect size, with an alpha level set at 0.05, and a power (1-β) set at 0.80.

Ba/F3-LMNA-NTRK1-V573M = system: Ba/F3-LMNA-NTRK1-V573M
Source text: as §1, §2, §3

Ba/F3 LMNA-NTRK1-G595R = system: Ba/F3 LMNA-NTRK1-G595R
Source text: as §1, §2, §3

Ba/F3 LMNA-NTRK1 = system: Ba/F3 LMNA-NTRK1
Source text: as §1, §2, §3

Ba/F3 LMNA-NTRK1-F589L = system: Ba/F3 LMNA-NTRK1-F589L
Source text: as §1, §2, §3

Ba/F3 LMNA-NTRK1-A608D = system: Ba/F3 LMNA-NTRK1-A608D
Source text: as §1, §2, §3

Ba/F3 LMNA-NTRK1-G667A = system: Ba/F3 LMNA-NTRK1-G667A
Source text: as §1, §2, §3

O=C(Nc1cnn2ccc(N3CCC[C@@H]3c3cc(F)ccc3F)nc12)N1CC[C@H](O)C1 [Larotrectinib, larotrectinib]
IC50 (Ba/F3 LMNA-NTRK1-G667C; Mus musculus, BaF3): 1370 nM
IC50 (Ba/F3-LMNA-NTRK1-V573M; Mus musculus, BaF3): 45.4 nM
IC50 (Ba/F3 LMNA-NTRK1-G595R; Mus musculus, BaF3): 3200 nM
IC50 (Ba/F3 LMNA-NTRK1; Mus musculus, BaF3): 21.8 nM
IC50 (Ba/F3 LMNA-NTRK1-F589L; Mus musculus, BaF3): 614 nM
IC50 (Ba/F3 LMNA-NTRK1-A608D; Mus musculus, BaF3): 19.7 nM
IC50 (Ba/F3 LMNA-NTRK1-G667A; Mus musculus, BaF3): 118 nM

C[C@@H]1CCc2ncc(F)cc2[C@H]2CCCN2c2ccn3ncc(c3n2)C(=O)N1 [Selitrectinib, selitrectinib]
IC50 (Ba/F3 LMNA-NTRK1-G667C; Mus musculus, BaF3): 164 nM
IC50 (Ba/F3-LMNA-NTRK1-V573M; Mus musculus, BaF3): 5.47 nM
IC50 (Ba/F3 LMNA-NTRK1-G595R; Mus musculus, BaF3): 18.1 nM
IC50 (Ba/F3 LMNA-NTRK1; Mus musculus, BaF3): 3.38 nM
IC50 (Ba/F3 LMNA-NTRK1-F589L; Mus musculus, BaF3): 46.9 nM
IC50 (Ba/F3 LMNA-NTRK1-A608D; Mus musculus, BaF3): 3.16 nM
IC50 (Ba/F3 LMNA-NTRK1-G667A; Mus musculus, BaF3): 21.1 nM

zurletrectinib
IC50 (Ba/F3 LMNA-NTRK1-G667C): 38.8 nM
IC50 (Ba/F3-LMNA-NTRK1-V573M): 2.33 nM
IC50 (Ba/F3 LMNA-NTRK1-G595R): 11 nM
IC50 (Ba/F3 LMNA-NTRK1): 1.2 nM
IC50 (Ba/F3 LMNA-NTRK1-F589L): 40.8 nM
IC50 (Ba/F3 LMNA-NTRK1-A608D): 1.18 nM
IC50 (Ba/F3 LMNA-NTRK1-G667A): 5.27 nM
